Experimental data from patent publication US20250230193A1, “CYCLIC COMPOUND HAVING SELECTIVE KRAS INHIBITORY EFFECT ON HRAS AND NRAS” (CHUGAI SEIYAKU KABUSHIKI KAISHA, priority 2022, published 2025).
Where a SMILES comes first, the peptide text is derived from it. Bridges are numbered along the chain shown (N, C = ends). [ ]: non-standard residue; d: D form. The star is where a group is joined. hPhe(3-Cl-4-CF3) = N[C@@H](CCc1ccc(C(F)(F)F)c(Cl)c1)C(=O)O; NPrPhe(4-CF3) = CCCN[C@@H](Cc1ccc(C(F)(F)F)cc1)C(=O)O; NMeGly(cPent) = CN[C@H](C(=O)O)C1CCCC1; Hyp = O=C(O)[C@@H]1C[C@@H](O)CN1; NMeL = CN[C@@H](CC(C)C)C(=O)O; Morpholide = C1CN(*)CCO1; Ac5c = NC1(C(=O)O)CCCC1; Aze = O=C(O)[C@@H]1CCN1; Sar = CNCC(=O)O

Key:
[1] = target: GDP-bound NRAS wild-type protein (Homo sapiens, UniProt P01111); assay: Binding to NRAS by surface plasmon resonance (SPR), Single Cycle Kinetics; details: SPR; for NRAS/KRAS (ratio of KD value with respect to NRAS to KD value with respect to KRAS): GDP-bound NRAS wild-type vs GDP-bound KRAS wild-type
Sequence of GDP-bound NRAS wild-type protein (P01111 whole entry): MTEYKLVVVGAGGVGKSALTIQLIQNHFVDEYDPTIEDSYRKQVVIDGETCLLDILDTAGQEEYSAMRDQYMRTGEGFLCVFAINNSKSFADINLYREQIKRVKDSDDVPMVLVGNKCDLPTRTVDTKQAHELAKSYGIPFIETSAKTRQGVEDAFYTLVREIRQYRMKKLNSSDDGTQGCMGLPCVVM

[2] = target: GDP-bound HRAS wild-type protein (Homo sapiens, UniProt P01112); assay: Binding to HRAS by surface plasmon resonance (SPR), Single Cycle Kinetics; details: SPR; for HRAS/KRAS (ratio of KD value with respect to HRAS to KD value with respect to KRAS): GDP-bound HRAS wild-type vs GDP-bound KRAS wild-type
Sequence of GDP-bound HRAS wild-type protein (P01112 whole entry): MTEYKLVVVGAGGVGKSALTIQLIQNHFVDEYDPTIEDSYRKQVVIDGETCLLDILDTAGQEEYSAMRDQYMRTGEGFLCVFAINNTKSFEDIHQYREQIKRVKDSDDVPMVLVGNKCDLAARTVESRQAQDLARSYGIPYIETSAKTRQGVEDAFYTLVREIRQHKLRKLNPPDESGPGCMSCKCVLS

`CCCOC[C@H]1C(=O)N[C@@H]([C@@H](C)CC)C(=O)N(C)CC(=O)N(C)[C@H]2C/C=C\CCN(C2=O)[C@@H](Cc2ccc(C)cc2)C(=O)N(C)CC(=O)N[C@@H](CCc2ccc(C(F)(F)F)c(Cl)c2)C(=O)N2C[C@H](OCC)C[C@H]2C(=O)NC2(CC(C)(C)C2)C(=O)N(C)[C@@H](C2CCCC2)C(=O)N(C)[C@H](C(=O)N(C)C)CC(=O)N1C` [PP2402] was tested. Which “NRAS/KRAS (ratio of KD value with respect to NRAS to KD value with respect to KRAS)” value [1] did it give?
Its value is “A (a compound having 10 or more and less than 20 is denoted as A)”.

What about the “HRAS/KRAS (ratio of KD value with respect to HRAS to KD value with respect to KRAS)” value [2] of the same compound?
The value was “A (a compound having 10 or more and less than 20 is denoted as A)”.

With `CC[C@H](C)[C@@H]1NC(=O)[C@H](CC(C)C)N(C)C(=O)C[C@@H](C(=O)N(C)CC)N(C)C(=O)[C@H](C2CCCC2)N(C)C(=O)C2(CC(C)(C)C2)NC(=O)[C@@H]2C[C@H](C)CN2C(=O)[C@H](CCc2cc(F)c(C(F)(F)F)c(F)c2)NC(=O)CN(C)C(=O)[C@H](Cc2ccc(C)cc2)N2CC/C=C\C[C@@H](C2=O)N(C)C(=O)[C@@H]2CCCN2C1=O` [PP2411] as the compound, how does the “NRAS/KRAS (ratio of KD value with respect to NRAS to KD value with respect to KRAS)” value [1] read?
Its value is “A (a compound having 10 or more and less than 20 is denoted as A)”.

What about the “HRAS/KRAS (ratio of KD value with respect to HRAS to KD value with respect to KRAS)” value [2] of the same compound?
The value was “A (a compound having 10 or more and less than 20 is denoted as A)”.

`CC[C@H](C)[C@@H]1NC(=O)[C@H](CC)N(C)C(=O)C[C@@H](C)N(C)C(=O)[C@H](C2CCCC2)N(C)C(=O)C2(CCCC2)NC(=O)[C@@H]2CCCN2C(=O)[C@H](CCc2cc(F)c(C(F)(F)F)c(F)c2)NC(=O)CN(C)C(=O)[C@H](Cc2ccc(C(F)(F)F)cc2)N2CC/C=C\C[C@@H](C2=O)N(C)C(=O)CN(C)C1=O` [PP1101] was tested. Which “NRAS/KRAS (ratio of KD value with respect to NRAS to KD value with respect to KRAS)” value ([1]; KD ratio) did it give?
Its value is “B (a compound having 3 or more and less than 10 is denoted as B)”.

And the “HRAS/KRAS (ratio of KD value with respect to HRAS to KD value with respect to KRAS)” value ([2]; KD ratio)?
The value was “B (a compound having 3 or more and less than 10 is denoted as B)”.

With `CCO[C@@H]1C[C@H]2C(=O)NC3(CC(C)(C)C3)C(=O)N(C)[C@@H](C3CCCC3)C(=O)N(C)[C@H](C(=O)N3CCCC3)CC(=O)N(C)[C@H]3CCCCCCc4ccc(cc4)C[C@@H](C(=O)N(C)CC(=O)N[C@@H](CCc4ccc(C(F)(F)F)c(OC)c4)C(=O)N2C1)N1CC/C=C\C[C@@H](C1=O)N(C)C(=O)CN(C)C(=O)[C@H]([C@@H](C)CC)NC3=O` [PP3034, (1S,7S,11R,13S,19S,22S,26S,29S,35S,37Z)-19-cyclopentyl-11-ethoxy-7-[2-[3-methoxy-4-(trifluoromethyl)phenyl]ethyl]-3,3′,3′,18,21,25,31,34-octamethyl-29-[(1S)-1-methylpropyl]-22-(pyrrolidine-1-carbonyl)spiro[3,6,9,15,18,21,25,28,31,34,41-undecazapentacyclo[24.15.11.2^43,46.1^35,41.0^9,13]pentapentaconta-37,43(54),44,46(53)-tetraene-16,1′-cyclobutane]-2,5,8,14,17,20,24,27,30,33,55-undecone] as the compound, how does the “NRAS/KRAS (ratio of KD value with respect to GDP-bound NRAS wild-type protein to KD value with respect to KRAS)” value ([1]; GDP-bound wild-type proteins) read?
The value was “A (a compound having 10 or more and less than 20 is denoted as A)”.

What about the “HRAS/KRAS (ratio of KD value with respect to GDP-bound HRAS wild-type protein to KD value with respect to KRAS)” value ([2]; GDP-bound wild-type proteins) of the same compound?
The value was “B (a compound having 3 or more and less than 10 is denoted as B)”.

With `CCCOC[C@H]1C(=O)N[C@@H]([C@@H](C)CC)C(=O)N(C)CC(=O)N(C)[C@H]2C/C=C\CCN(C2=O)[C@@H](Cc2ccc(C)cc2)C(=O)N(C)CC(=O)N[C@@H](CCc2cc(F)c(C(F)(F)F)c(F)c2)C(=O)N2C[C@H](CC)C[C@H]2C(=O)NC2(CCCC2)C(=O)N(C)[C@@H](C2CCCC2)C(=O)N(C)[C@H](C(=O)N(C)C)CC(=O)N1C` [PP2218] as the compound, how does the “NRAS/KRAS (ratio of KD value with respect to NRAS to KD value with respect to KRAS)” value [1] read?
Its value is “A (a compound having 10 or more and less than 20 is denoted as A)”.

And the “HRAS/KRAS (ratio of KD value with respect to HRAS to KD value with respect to KRAS)” value [2]?
The value was “A (a compound having 10 or more and less than 20 is denoted as A)”.

What does the source list for `CCCN1C(=O)CN(C)C(=O)[C@@H]2CCN2C(=O)[C@H]([C@@H](C)CC)NC(=O)[C@H](CC(C)C)N(C)C(=O)C[C@@H](C(=O)N2CCOCC2)NC(=O)[C@H](C2CCCC2)N(C)C(=O)C2(CCCC2)NC(=O)[C@@H]2C[C@@H](OCC)CN2C(=O)[C@H](CCc2ccc(C(F)(F)F)c(Cl)c2)NC(=O)CN(C)C(=O)[C@@H]1Cc1ccc(C(F)(F)F)cc1` [PP0341] ([NMeL]I[Aze][Sar][NPrPhe(4-CF3)][Sar][hPhe(3-Cl-4-CF3)][Hyp](Et)[Ac5c][NMeGly(cPent)]D-Morpholide; lactam N-11)?
NRAS/KRAS (ratio of KD for GDP-bound NRAS wild-type to KD for KRAS) [1]: B (a compound having 3 or more and less than 10 is denoted as B); HRAS/KRAS (ratio of KD for GDP-bound HRAS wild-type to KD for KRAS) [2]: B (a compound having 3 or more and less than 10 is denoted as B)

With `CCO[C@@H]1C[C@H]2C(=O)NC3(CCCC3)C(=O)N(C)[C@@H](C3CCCC3)C(=O)N(C)[C@H](C(=O)N(C)C)CC(=O)N(C)[C@@H](CC)C(=O)N[C@@H]([C@@H](C)CC)C(=O)N(C)CC(=O)N(C)[C@H]3CC(C)=C(C)CN(C3=O)[C@@H](Cc3ccc(C(F)(F)F)cc3)C(=O)N(C)CC(=O)N[C@@H](CCc3cc(F)c(C(F)(F)F)c(F)c3)C(=O)N2C1` [PP1050] as the compound, how does the “NRAS/KRAS (ratio of KD value with respect to NRAS to KD value with respect to KRAS)” value ([1]; KD ratio) read?
The value was “C (A compound having a KD ratio of 0.1 or more and less than 3 is denoted as C)”.

And the “HRAS/KRAS (ratio of KD value with respect to HRAS to KD value with respect to KRAS)” value ([2]; KD ratio)?
Its value is “C (A compound having a KD ratio of 0.1 or more and less than 3 is denoted as C)”.

Which “NRAS/KRAS (ratio of KD for GDP-bound NRAS wild-type to KD for KRAS)” value [1] does the source give for `CC[C@H](C)[C@@H]1NC(=O)[C@H](CC(C)C)N(C)C(=O)C[C@@H](C(=O)N2CCOCC2)N(C)C(=O)[C@H](C2CCCC2)N(C)C(=O)C2(CCCC2)NC(=O)[C@@H]2CCCN2C(=O)[C@H](CCc2ccc(C(F)(F)F)c(Cl)c2)NC(=O)CN(C)C(=O)[C@H](Cc2ccc(C)cc2)N2CCCCC[C@@H](C2=O)N(C)C(=O)CN(C)C1=O` [PP0317] here?
The value was “B (a compound having 3 or more and less than 10 is denoted as B)”.

What about the “HRAS/KRAS (ratio of KD for GDP-bound HRAS wild-type to KD for KRAS)” value [2] of the same compound?
Its value is “B (a compound having 3 or more and less than 10 is denoted as B)”.

For `CCC[C@H]1C(=O)N[C@@H]([C@@H](C)CC)C(=O)N(C)CC(=O)N(C)[C@H]2C/C=C\CCN(C2=O)[C@@H](Cc2ccc(C)cc2)C(=O)N(C)CC(=O)N[C@@H](CCc2ccc(C(F)(F)F)c(Cl)c2)C(=O)N2C[C@H](OCC)C[C@H]2C(=O)NC2(CC(C)(C)C2)C(=O)N(C)[C@@H](CC(C)(C)C)C(=O)N(C)[C@H](C(=O)N(C)C)CC(=O)N1C` [PP2230], which “NRAS/KRAS (ratio of KD value with respect to NRAS to KD value with respect to KRAS)” value [1] is on record?
The value was “A (a compound having 10 or more and less than 20 is denoted as A)”.

What about the “HRAS/KRAS (ratio of KD value with respect to HRAS to KD value with respect to KRAS)” value [2] of the same compound?
Its value is “A (a compound having 10 or more and less than 20 is denoted as A)”.

Which “NRAS/KRAS (ratio of KD value with respect to GDP-bound NRAS wild-type protein to KD value with respect to KRAS)” value [1] does the source give for `CCO[C@@H]1C[C@H]2C(=O)NC3(CCC3)C(=O)N(C)[C@@H](C3CCCC3)C(=O)N(CCC3CCC3)[C@H](C(=O)N(C)C)CC(=O)N(C)[C@@H](CC)C(=O)N[C@@H]([C@@H](C)CC)C(=O)N(C)CC(=O)N(C)[C@H]3CCCCCN(C3=O)[C@@H](Cc3ccc(C(F)(F)F)cc3)C(=O)N(C)CC(=O)N[C@@H](CCc3cc(F)c(C(F)(F)F)c(F)c3)C(=O)N2C1` [PP0635] here?
Its value is “B (a compound having 3 or more and less than 10 is denoted as B)”.

What about the “HRAS/KRAS (ratio of KD value with respect to GDP-bound HRAS wild-type protein to KD value with respect to KRAS)” value [2] of the same compound?
Its value is “B (a compound having 3 or more and less than 10 is denoted as B)”.
